Source: the supplement of paper PMC9663587

Columns and labels:
[1] = compound: CCN1CCN(Cc2ccc(Nc3ncc(F)c(-c4cc(F)c5nc(C)n(C(C)C)c5c4)n3)nc2)CC1; assay: increase in dead-cell fraction, 72 h; higher = more death;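 further: breast cancer cell lines in 384-well plates, stained with Hoechst plus LIVE/DEAD far red dye and imaged, cells above an LDR intensity threshold counted dead, Hoechst-negative corpses included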
[2] = compound: C=CC(=O)Nc1ccc(C(=O)Nc2[nH]nc3c2CN(C(=O)N[C@H](CN(C)C)c2ccccc2)C3(C)C)cc1 [YKL-5-124]; assay: as above
[3] = compound: CC(=O)c1c(C)c2cnc(Nc3ccc(N4CCN(CCOCCOCCOCCNC(=O)COc5cccc6c5C(=O)N(C5CCC(=O)NC5=O)C6=O)CC4)cn3)nc2n(C2CCCC2)c1=O [BSJ-03-123]; assay: as above
[4] = compound: CCOc1cc2ncc(C#N)c(Nc3ccc(OCc4ccccn4)c(Cl)c3)c2cc1NC(=O)/C=C/CN(C)C [Neratinib/HKI272]; assay: as above
[5] = compound: CN(C)C(=O)c1cc2cnc(Nc3ccc(N4CCNCC4)cn3)nc2n1C1CCCC1 [LEE011/Ribociclib]; assay: as above
[6] = compound: CN1CC[C@H](c2c(O)cc(O)c3c(=O)cc(-c4ccccc4Cl)oc23)[C@H](O)C1 [Flavopiridol]; assay: as above
[7] = compound: CN(C)C/C=C/C(=O)Nc1ccc(C(=O)Nc2cccc(Nc3ncc(Cl)c(-c4c[nH]c5ccccc45)n3)c2)cc1 [THZ1]; assay: as above
[8] = compound: CN(C)C/C=C/C(=O)Nc1ccc(C(=O)N2CCC[C@@H](Nc3ncc(Cl)c(-c4c[nH]c5ccccc45)n3)C2)cc1 [THZ531]; assay: as above
[9] = compound: CCc1cnn2c(NCc3ccc[n+]([O-])c3)cc(N3CCCC[C@H]3CCO)nc12; assay: as above
[10] = compound: CC(=O)c1c(C)c2cnc(Nc3ccc(N4CCNCC4)cn3)nc2n(C2CCCC2)c1=O; assay: as above
[11] = compound: CCNC(=O)c1noc(-c2cc(C(C)C)c(O)cc2O)c1-c1ccc(CN2CCOCC2)cc1 [Luminespib/NVP-AUY922]
[12] = compound: CN1CCN(CCOc2cc(OC3CCOCC3)c3c(Nc4c(Cl)ccc5c4OCO5)ncnc3c2)CC1 [Saracatinib/AZD0530]
[13] = compound: CN(C)C/C=C/C(=O)Nc1ccc(O[C@@H]2CCC[C@@H](Nc3ncc(Cl)c(-c4c[nH]c5ccccc45)n3)C2)cc1 [BSJ-01-175]
[14] = compound: CN(C)C/C=C/C(=O)NC1=CC=C(C=C1)C(=O)NC2=CC=CC(=C2)NC3=NC=NC(=C3)C4=CNC5=CC=CC=C54 [THZ-P1-2]
[15] = compound: Cc1cc(Nc2ncc(Cl)c(Nc3ccccc3S(=O)(=O)C(C)C)n2)c(OC(C)C)cc1C1CCNCC1 [Ceritinib/LDK378]
[16] = compound: CCCCOc1c(C(=O)c2c(F)cc(C)cc2F)c[nH]c2nncc1-2
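Wherever GR50, 72 h is given: breast cancer and non-malignant breast epithelial cell lines, Deep Dye Drop or Dye Drop imaging, nine half-log doses, GR normalized to time-zero plates and DMSO-only controls.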

## UACC812
[1]; 0.001 µM
  increase in dead-cell fraction: -0.0019
[1]; 0.003162 µM
  increase in dead-cell fraction: 0.0028
[1]; 0.01 µM
  increase in dead-cell fraction: 0.0044
[1]; 0.03162 µM
  increase in dead-cell fraction: 0.0186
[1]; 0.1 µM
  increase in dead-cell fraction: 0.0202
[1]; 0.3162 µM
  increase in dead-cell fraction: 0.0231
[1]; 1 µM
  increase in dead-cell fraction: 0.0272
[1]; 3.162 µM
  increase in dead-cell fraction: 0.0144
[1]; 10 µM
  increase in dead-cell fraction: 0.073
[2]; 0.001 µM
  increase in dead-cell fraction: 0.0021
[2]; 0.003162 µM
  increase in dead-cell fraction: 0.0107
[2]; 0.01 µM
  increase in dead-cell fraction: 0.0182
[2]; 0.03162 µM
  increase in dead-cell fraction: 0.0223
[2]; 0.1 µM
  increase in dead-cell fraction: 0.0246
[2]; 0.3162 µM
  increase in dead-cell fraction: 0.0283
[2]; 1 µM
  increase in dead-cell fraction: 0.0151
[2]; 3.162 µM
  increase in dead-cell fraction: 0.027
[2]; 10 µM
  increase in dead-cell fraction: 0.0485
[3]; 0.001 µM
  increase in dead-cell fraction: 0.0002
[3]; 0.003162 µM
  increase in dead-cell fraction: 0.0007
[3]; 0.01 µM
  increase in dead-cell fraction: 0.0021
[3]; 0.03162 µM
  increase in dead-cell fraction: 0.0004
[3]; 0.1 µM
  increase in dead-cell fraction: 0.0012
[3]; 0.3162 µM
  increase in dead-cell fraction: -0.0006
[3]; 1 µM
  increase in dead-cell fraction: -0.0002
[3]; 3.162 µM
  increase in dead-cell fraction: 0.0096
[3]; 10 µM
  increase in dead-cell fraction: 0.0406
[4]; 0.0003162 µM
  increase in dead-cell fraction: -0.0016
[4]; 0.001 µM
  increase in dead-cell fraction: 0.0009
[4]; 0.003162 µM
  increase in dead-cell fraction: 0.0017
[4]; 0.01 µM
  increase in dead-cell fraction: 0.0044
[4]; 0.03162 µM
  increase in dead-cell fraction: 0.0198
[4]; 0.1 µM
  increase in dead-cell fraction: 0.0311
[4]; 0.3162 µM
  increase in dead-cell fraction: 0.0666
[4]; 1 µM
  increase in dead-cell fraction: 0.0547
[4]; 3.162 µM
  increase in dead-cell fraction: 0.114
[5]; 0.001 µM
  increase in dead-cell fraction: 0.0064
[5]; 0.003162 µM
  increase in dead-cell fraction: 0.0022
[5]; 0.01 µM
  increase in dead-cell fraction: 0.0036
[5]; 0.03162 µM
  increase in dead-cell fraction: 0.0049
[5]; 0.1 µM
  increase in dead-cell fraction: 0.0102
[5]; 0.3162 µM
  increase in dead-cell fraction: 0.0156
[5]; 1 µM
  increase in dead-cell fraction: 0.0075
[5]; 3.162 µM
  increase in dead-cell fraction: 0.017
[5]; 10 µM
  increase in dead-cell fraction: 0.0125
[6]; 0.0001 µM
  increase in dead-cell fraction: 0.0015
[6]; 0.0003162 µM
  increase in dead-cell fraction: -0.0016
[6]; 0.001 µM
  increase in dead-cell fraction: 0.0074
[6]; 0.003162 µM
  increase in dead-cell fraction: 0.0022
[6]; 0.01 µM
  increase in dead-cell fraction: -0.0031
[6]; 0.03162 µM
  increase in dead-cell fraction: -0.0033
[6]; 0.1 µM
  increase in dead-cell fraction: 0.0023
[6]; 0.3162 µM
  increase in dead-cell fraction: 0.0692
[6]; 1 µM
  increase in dead-cell fraction: 0.403
[7]; 0.0001 µM
  increase in dead-cell fraction: -0.003
[7]; 0.0003162 µM
  increase in dead-cell fraction: 0.0027
[7]; 0.001 µM
  increase in dead-cell fraction: -0.0004
[7]; 0.003162 µM
  increase in dead-cell fraction: 0.0019
[7]; 0.01 µM
  increase in dead-cell fraction: 0.0019
[7]; 0.03162 µM
  increase in dead-cell fraction: -0.0013
[7]; 0.1 µM
  increase in dead-cell fraction: -0.0018
[7]; 0.3162 µM
  increase in dead-cell fraction: 0.0001
[7]; 1 µM
  increase in dead-cell fraction: 0.0639
[8]; 0.0001 µM
  increase in dead-cell fraction: 0.0045
[8]; 0.0003162 µM
  increase in dead-cell fraction: 0.0009
[8]; 0.001 µM
  increase in dead-cell fraction: 0.0012
[8]; 0.003162 µM
  increase in dead-cell fraction: -0.0009
[8]; 0.01 µM
  increase in dead-cell fraction: 0.0008
[8]; 0.03162 µM
  increase in dead-cell fraction: -0.0001
[8]; 0.1 µM
  increase in dead-cell fraction: -0.0004
[8]; 0.3162 µM
  increase in dead-cell fraction: 0.0004
[8]; 1 µM
  increase in dead-cell fraction: 0.0127
[9]; 0.0001 µM
  increase in dead-cell fraction: -0.0048
[9]; 0.0003162 µM
  increase in dead-cell fraction: -0.0023
[9]; 0.001 µM
  increase in dead-cell fraction: -0.0065
[9]; 0.003162 µM
  increase in dead-cell fraction: -0.0073
[9]; 0.01 µM
  increase in dead-cell fraction: -0.007
[9]; 0.03162 µM
  increase in dead-cell fraction: 0.0324
[9]; 0.1 µM
  increase in dead-cell fraction: 0.478
[9]; 0.3162 µM
  increase in dead-cell fraction: 0.529
[9]; 1 µM
  increase in dead-cell fraction: 0.523
[10]; 0.0003162 µM
  increase in dead-cell fraction: -0.0049
[10]; 0.001 µM
  increase in dead-cell fraction: 0.0002
[10]; 0.003162 µM
  increase in dead-cell fraction: -0.0042
[10]; 0.01 µM
  increase in dead-cell fraction: 0.005
[10]; 0.03162 µM
  increase in dead-cell fraction: 0.0019
[10]; 0.1 µM
  increase in dead-cell fraction: 0.0099
[10]; 0.3162 µM
  increase in dead-cell fraction: 0.0073
[10]; 1 µM
  increase in dead-cell fraction: 0.0136
[10]; 3.162 µM
  increase in dead-cell fraction: 0.0146
[11]
  GR50, 72 h: 0.00518 µM
[12]
  GR50, 72 h: 0.0189 µM
[13]
  GR50, 72 h: 0.332 µM
[14]
  GR50, 72 h: 3.78 µM
[15]
  GR50, 72 h: 3.48 µM
[16]
  GR50, 72 h: < 0.001 µM
